In US4238507A, “Pharmacological compound with immunopotentiating activity and production and uses thereof” (Zaidan Hojin Biseibutsu Kagaku Kenkyu Kai, priority 1979, dated 1980):

Columns and labels:
alkaline phosphatase = details: literature; cited from earlier work
[1] = system: cellular immunity (cell-mediated immunity); test: Delayed-Type Hypersensitivity (D.T.H.) footpad swelling, effect on cellular immunity in mice immunized with sheep red blood cells; type: in vivo, ddY mouse; details: for Degree of swelling: left hind footpad, 24 hours after elicitation
Procedure: In order to evaluate the immunopotentiating properties of the compound (I) of this invention, the effect of the compound (I) on cellular immunity (cell-mediated immunity) was tested according to a known Delayed-Type Hypersensitivity (D.T.H.) technique (see P. H. Lagrange, G. B. Mackaness and T. E. Mille, "J. Exp. Med", 139, 1529-1539 (1974)) using mice immunized with sheep red blood cells as antigen.
Thus, 10^8 sheep red blood cells (SRBC) suspended in 0.05 ml of physiological saline were subcutaneously injected at the time of immunization to the right hind footpad of each dd/.UPSILON. mouse under test (female, 6 weeks old) to establish delayed-type hypersensitivity. Simultaneously with the immunization, a varying dose of the compound (I) was intraperitoneally injected or orally administered into each test mouse. Four days later, 10^8 sheep red blood cells were subcutantaneously injected into the left hind footpad of each test mouse for elicitation of the D.T.H. response. 24 hours after the elicitating injection, the thickness of the left hind footpad was measured to evaluate the degree of the swelling in the footpad. The degree of the swelling serves to estimate the cellular immunity involved. In the Table, the swelling degree is expressed in terms of the values calculated by the equation: [formula]

[2] = acute toxicity (LD50), intraperitoneal injection in mice; details: mouse, in vivo, ip; intraperitoneally injected into mice
[3] = stability compared with forphenicine; type: physicochemical; details: relative to forphenicine
immune response = test: immunopotentiating activity upon oral administration compared with forphenicine; type: in vivo; details: relative to forphenicine

Row | SMILES | inhibition of alkaline phosphatase (alkaline phosphatase) | Degree of swelling ([1]; i.p. injection, 0.1 μg/mouse) | Degree of swelling ([1]; i.p. injection, 1 μg/mouse) | Degree of swelling ([1]; i.p. injection, 10 μg/mouse) | Degree of swelling ([1]; i.p. injection, 100 μg/mouse) | potentiating effect on establishment of cellular immunity ([1]; intraperitoneal injection or oral administration, wide range of dosages) | Degree of swelling ([1]; oral administration, 0.1 μg/mouse) | Degree of swelling ([1]; oral administration, 1 μg/mouse) | Degree of swelling ([1]; oral administration, 10 μg/mouse) | Degree of swelling ([1]; oral administration, 100 μg/mouse) | LD50 [2] | stability [3] | activity upon oral administration (immune response)
1 | NC(C(=O)O)c1ccc(C=O)c(O)c1 (stereo not shown) [Forphenicine, forphenicine] | strong inhibitor of alkaline phosphatase | – | – | – | – | – | – | – | – | – | – | – | –
2 | NC(C(=O)O)c1ccc(CO)c(O)c1 (stereo not shown) [compound (I), forphenicinol] | – | 183 | 159 | 148 | 131 | intensive potentiating effect | 139 | 133 | 191 | 166 | > 500 mg/kg | more stable than forphenicine | higher activity than forphenicine
